From US20220184037A1, “PHARMACEUTICAL AGENTS TARGETING CANCER STEM CELLS” (THE JOHNS HOPKINS UNIVERSITY, priority 2020, published 2022)

Experiments:
[1] = test system: COX2; experiment: Western blotting of COX2 expression in bladder cancer cells; assay type: cell-based, human
Description: Whole cell lysates were extracted using RIPA buffer (Thermo Scientific) supplemented with 10 μL/mL Halt™ Protease Inhibitor Cocktail Kit (Life Technologies) and 30 μL/mL Halt™ Phosphatase Inhibitor Cocktail Kit (Life Technologies). The protein concentrations were determined using a Pierce™ BCA Protein Assay Kit (Life Technologies), and the protein were separated on. NuPAGE 4-12% Bis-Tris Gel (Life Technologies) according to the manufacturer's protocol. COX2 (D5H5), NANOG (D73G4), OCT4 (D7O5Z), CD133 (A3G6K), Snail (C15D3), ZEBI (D80D3), Vimentin (D21H3), CDH2 (D4R1H), CDH1 (24E10), p-EGFR (D7A5), EGFR (D38B1), p-AKT (D9E), AKT (cat #, 9272), p-ERK (D13.14.4E), ERK (137F5), p-YAP1 (D9W2I), p-Src (cat #, 2101), Src (36D10), DNMT1 (D63A6), DNMT3A (D23G1), and DNMT3B (D7070) antibodies were obtained from Cell Signaling Technology (Danvers, Mass., USA), except for SOX2 (EPR3131; Abeam, Cambridge, USA), YAP1 (ab52771; Abeam), CD24 (cat #, AF5247-SP; R&D Systems, Minneapolis USA) and β-actin (A2228; Sigma-Aldrich). Secondary horseradish peroxidase (HRP)-conjugated antibodies were obtained from Cell Signaling Technology, and chemiluminescent detection of HRP-labeled antibodies was performed using Amersham ECL Prime Western Blotting Detection Reagent (GE Healthcare, Piscataway, USA). As loading control, β-actin was used.

[2] = Body weight of treated mice; assay type: in vivo; details: mice treated with inhibitors compared with control
Description: For therapeutic efficacy, mice were randomly assigned into experimental groups (five mice per group) when tumors reached a volume of […]. For celecoxib and/or VP treatment, celecoxib (5 mg/kg) was administered via intraperitoneal (i.p.) injection once a day (17), and VP (50 mg/kg) was administered via i.p. every other day (18). EP4 antagonist ONO-AE3-208 (10 mg/kg) was administered via i.p. once a day (19). Control was applied with same volume (10 μL per injection) of 10% dimethyl sulphoxide in 1% TWEEN 80 (Sigma-Aldrich). For GEM and CDDP (GC) treatment (i.p.), CDDP (6 mg/kg) was only applied after the first GEM (60 mg/kg) treatment on day 2, followed by three consecutive treatments of GEM on day 5, 8 and 11 (17). The next cycle was started on day 18, and the treatment was continued until tumor reached 2 cm in diameter. For erlotinib treatment, the mice were treated once a day, 6 days per week, by oral gavage with erlotinib (100 mg/kg) or control (PBS containing 0.5% methyl cellulose (Sigma-Aldrich) and 0.1% TWEEN 80) (20). Tumor size was measured at least every three days. Therapeutic efficacy was assessed using percentage change after treatment related to tumor size before treatment. […]

[3] = test system: let-7; experiment: let-7 expression by Q-RT-PCR; assay type: cell-based, human; details: parental or spheroid bladder cancer cells
Description: Total RNA from cell lines was isolated using the RNeasy Plus Mini kit (Qiagen, Valencia, USA) according to the manufacturer's protocol. Total RNA extraction from bladder tissue was performed with the QIAzol Lysis Reagent (Qiagen) followed by phenol extraction and ethanol precipitation. Total RNA was eluted in DEPC treated water and stored at −80 ° C. Total RNA extraction from urine was performed using the MirVana miRNA Isolation Kit (Ambion, Austin, USA). These total RNA were converted to cDNA using the SuperScript III First-Strand Synthesis System (Life technologies, Carlsbad, USA), which was then used as a template for Q-RT-PCR. Q-RT-PCR was performed using the Fast SYBR Green Master Mix (Thermo Fisher Scientific, Waltham, USA) on a 7900HT Fast Real-Time PCR System (Life technologies) in triplicate. Micro RNA (miRNA) extraction was performed using the MirVana miRNA Isolation Kit, and was reverse transcribed using TaqMan reverse transcription kit (Applied Biosystems, Foster City, USA) and miRNA-specific RT primers provided with TaqMan microRNA assays (Applied Biosystems). Q-RT-PCR for miRNAs was performed using the TaqMan Universal PCR Master Mix according to the manufacturer's protocol. SDS software (Applied Biosystems) was used to determine cycle threshold (Ct) values. Expression level was quantified relative to β-actin for mRNA and RNU6B for miRNA using the 2-ΔΔCt method (12).
For demethylation, cells (1×10^6/T-75 flask) were treated with […] of the demethylating agent 5-Aza-dC (Sigma) dissolved in 50% acetic acid or were mock-treated with phosphate buffered saline (PBS) including the same amount of acetic acid every 24 hours for 5 days. When combined with the histone deacetylase inhibitor TSA (Sigma), 300 nmol/L TSA was added to the medium for the final 24 hours.

Row | Structure (SMILES) | COX2 expression ([1]; basal-type cells, 1 μM erlotinib) | levels of COX2 expression ([1]; non-basal-type cells, erlotinib) | body weight loss [2] | let-7 expression [3]
1 | C#Cc1cccc(Nc2ncnc3cc(OCCOC)c(OCCOC)cc23)c1 [erlotinib, Erlotinib] | increased COX2 expression | did not affect |  | 
2 | Cc1ccc(-c2cc(C(F)(F)F)nn2-c2ccc(S(N)(=O)=O)cc2)cc1 [celecoxib, Celecoxib] |  |  | did not observe body weight loss | restoration of let-7 expression
